molecular target: T1, papain (Carica papaya, UniProt P00784); assay: Papain inhibitory activity (milk casein proteolysis); type: biochemical; parameters: unit not given beside the values; conditions: amount of inhibitor for 50% inhibition; pH 6.8, 40° C., casein substrate
T1 construct: purchased Sigma Chem. Co
T1 sequence (P00784 134-345): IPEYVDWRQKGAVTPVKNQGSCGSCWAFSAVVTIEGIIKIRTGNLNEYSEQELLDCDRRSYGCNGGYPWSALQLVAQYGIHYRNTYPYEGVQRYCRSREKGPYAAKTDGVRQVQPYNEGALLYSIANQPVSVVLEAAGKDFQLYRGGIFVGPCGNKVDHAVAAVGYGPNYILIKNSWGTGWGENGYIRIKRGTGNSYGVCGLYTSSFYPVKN
Description: Papain inhibitory activity of the compounds of the present invention was assayed as follows: To 0.5 ml of a solution of papain (80 μg/ml, Sigma Chem. Co., 2x, cry.), were added 0.25 ml of 40 mM cysteine dissolved in 20 mM disodium ethylenediamine tetraacetic acid solution adjusted pH to 6.8 with sodium hydroxide and 0.25 ml of 33 mM phosphate buffer (pH 6.8) with or without inhibitor. After incubation for 15 minutes at 40° C., the resulting mixture was added to 5 ml of 1% milk casein solution in the same buffer as described above, and further incubated for 10 minutes at 40° C. Then the mixture was mixed with 5 ml of 0.44 M trichloroacetic acid solution and followed by filtration with a sheet of Toyo filter paper No. 4.
The extinction of the filtrate was read at 280 nm. The percent inhibition was calculated from the formula, 100×(B-A)/B; wherein B stands for the absorbance without inhibitor and A for the absorbance with inhibitor. The compound Nos. in Table 2 are as defined in Examples as described hereinafter.

| SMILES | ID50 |
| --- | --- |
| CCOC(=O)[C@H]1O[C@@H]1C(N)=O (relative stereo) [Compound No. 55, ethyl 2,3-epoxysuccinamate] | 3.14 γ |
| CCOC(=O)[C@H]1O[C@@H]1C(=O)N(CC(C)C)CC(C)C (relative stereo) [Compound No. 56, ethyl N,N-diisobutyl-2,3-epoxysuccinamate] | 148.80 γ |
| CCOC(=O)[C@H]1O[C@@H]1C(=O)N(CC)CC (relative stereo) [Compound No. 57, ethyl N,N-diethyl-2,3-epoxysuccinamate] | 46.30 γ |
| CCOC(=O)[C@H]1O[C@@H]1C(=O)N(C)Cc1ccccc1 (relative stereo) [Compound No. 58, ethyl N-methyl-N-benzyl-2,3-epoxysuccinamate] | 231.50 γ |
| CCCN(C(=O)[C@H]1O[C@@H]1C(=O)OCC)c1ccccc1 (relative stereo) [Compound No. 59, ethyl N-propyl-N-phenyl-2,3-epoxysuccinamate] | 154.50 γ |
| COC(=O)[C@H]1O[C@@H]1C(=O)NC1CCCCC1 (relative stereo) [Compound No. 61, Methyl N-cyclohexyl-2,3-epoxysuccinamate] | 19.65 γ |
| CCCOC(=O)[C@H]1O[C@@H]1C(=O)Nc1ccccc1 (relative stereo) [Compound No. 62, Propyl N-phenyl-2,3-epoxysuccinamate] | 6.16 γ |
| CCCOC(=O)[C@H]1O[C@@H]1C(=O)NC1CCCC1 (relative stereo) [Compound No. 63, Propyl N-cyclopentyl-2,3-epoxysuccinamate] | 4.23 γ |
| CCCOC(=O)[C@H]1O[C@@H]1C(=O)NC(C)C (relative stereo) [Compound No. 64, Propyl N-isopropyl-2,3-epoxysuccinamate] | 8.32 γ |
| CCNC(=O)[C@H]1O[C@@H]1C(=O)OC(C)C (relative stereo) [Compound No. 65, Isopropyl N-ethyl-2,3-epoxysuccinamate] | 13.65 γ |
| CC(C)NC(=O)[C@H]1O[C@@H]1C(=O)OCc1ccccc1 (relative stereo) [Compound No. 67, Benzyl N-isopropyl-2,3-epoxysuccinamate] | 5.14 γ |
| CCOC(=O)[C@H]1O[C@@H]1C(=O)NCCCCNC(=O)OCc1ccccc1 (relative stereo) [Compound No. 68, ethyl N-carbobenzoxyaminobutyl-2,3-epoxysuccinamate] | 24.04 γ |
| CCOC(=O)[C@H]1O[C@@H]1C(=O)NCCCCCNC(=O)OCc1ccccc1 (relative stereo) [Compound No. 69, ethyl N-carbobenzoxyaminopentyl-2,3-epoxysuccinamate] | 12.05 γ |
| COC(=O)[C@H]1O[C@@H]1C(=O)N1CCOCC1 (relative stereo) [Compound No. 70, Methyl N-oxydiethylene-2,3-epoxysuccinamate] | 90.25 γ |
| C=CCOC(=O)[C@H]1O[C@@H]1C(=O)NCCc1ccccc1 (relative stereo) [Compound No. 71, Allyl N-phenethyl-2,3-epoxysuccinamate] | 4.13 γ |
| CN1CCN(C(=O)[C@H]2O[C@@H]2C(=O)OCC2CCCC2)CC1 (relative stereo) [Compound No. 72, Cyclopentanemethyl N-N'-methylaminodiethylene-2,3-epoxysuccinamate] | 146.51 γ |
| CCOC(=O)[C@@H]1O[C@H]1C(=O)N1CCCC1 (relative stereo) [Compound No. 73, ethyl N-tetramethylene-2,3-epoxysuccinamate] | 128.50 γ |
| C#CCOC(=O)[C@@H]1O[C@H]1C(=O)N1CCCCC1 (relative stereo) [Compound No. 74, propargyl N-pentamethylene-2,3-epoxysuccinamate] | 39.62 γ |
| CCOC(=O)[C@@H]1O[C@H]1C(=O)N1CCCC1C (relative stereo) [Compound No. 75, ethyl N-1'-methyltetramethylene-2,3-epoxysuccinamate] | 130.10 γ |
| CCOC(=O)[C@@H]1O[C@H]1C(=O)N1CCCCC1 (relative stereo) [Compound No. 77, Ethyl N-pentamethylene-2,3-epoxysuccinamate] | 145.21 γ |
| O=C(OCc1ccccc1)[C@@H]1O[C@H]1C(=O)N1CCCCC1 (relative stereo) [Compound No. 78, Benzyl N-pentamethylene-2,3-epoxysuccinamate] | 34.23 γ |
| O=C(OCCCC1CCCC1)[C@@H]1O[C@H]1C(=O)N1CCCC1 (relative stereo) [Compound No. 79, 3'-Cyclopentanepropyl N-tetramethylene-2,3-epoxysuccinamate] | 36.25 γ |

| SMILES | ID50 |
| --- | --- |
| CCOC(=O)[C@@H]1O[C@H]1C(=O)Nc1ccccc1C(=O)O (relative stereo) [Compound No. 81, ethyl N-2'-carboxyphenyl-2,3-epoxysuccinamate] | 36.76 γ |
| CCOC(=O)[C@@H]1O[C@H]1C(=O)Nc1cc(Cl)ccc1C(=O)O (relative stereo) [Compound No. 82, ethyl N-2'-carboxy-5'-chlorophenyl-2,3-epoxysuccinamte] | 277.80 γ |
| CCOC(=O)[C@@H]1O[C@H]1C(=O)NCC1CC1 (relative stereo) [Compound No. 83, ethyl N-cyclopropanemethyl-2,3-epoxysuccinamate] | 130.20 γ |
| CNC(=O)[C@H]1O[C@@H]1C(=O)Oc1ccccc1 (relative stereo) [Compound No. 84, phenyl N-methyl-2,3-epoxysuccinamate] | 12.65 γ |
| CCOC(=O)[C@@H]1O[C@H]1C(=O)N(C)C (relative stereo) [Compound No. 85, ethyl N,N-dimethyl-2,3-epoxysuccinamate] | 39.50 γ |
| CNC(=O)[C@@H]1O[C@H]1C(=O)OCCC(C)C (relative stereo) [Compound No. 89, Isoamyl N-methyl-2,3-epoxysuccinamate] | 14.81 γ |
| CC(C)CCOC(=O)[C@@H]1O[C@H]1C(=O)N(C)C (relative stereo) [Compound No. 90, Isoamyl N,N-dimethyl-2,3-epoxysuccinamate] | 50.25 γ |
| CNC(=O)[C@H]1O[C@@H]1C(=O)OCc1ccccc1 (relative stereo) [Compound No. 91, Benzyl N-methyl-2,3-epoxysuccinamate] | 9.68 γ |
| CCOC(=O)[C@@H]1O[C@H]1C(=O)N1CCCCC1C(=O)OCc1ccccc1 (relative stereo) [Compound No. 92, Ethyl N-1'-carbobenzoxypentamethylene-2,3-epoxysuccinamate] | 120.10 γ |
| CC(C)OC(=O)[C@@H]1O[C@H]1C(=O)Nc1ccccc1 (relative stereo) [Compound No. 93, isopropyl N-phenyl-2,3-epoxysuccinamate] | 21.55 γ |
| O=C(Nc1ccccc1)[C@@H]1O[C@H]1C(=O)OCC1CCCCC1 (relative stereo) [Compound No. 94, cyclohexanemethyl N-phenyl-2,3-epoxysuccinamate] | 1.51 γ |
| O=C(O)[C@@H]1O[C@H]1C(=O)Nc1ccccc1 (relative stereo) [Compound No. 95, potassium N-phenyl-2,3-epoxysuccinamate] | 0.330 γ |
| O=C(O)[C@@H]1O[C@H]1C(=O)NCc1ccccc1 (relative stereo) [Compound No. 96, potassium N-benzyl-2,3-epoxysuccinamate] | 0.158 γ |
| CC(C)CCNC(=O)[C@H]1O[C@@H]1C(=O)O (relative stereo) [Compound No. 97, potassium N-isoamyl-2,3-epoxysuccinamate] | 0.266 γ |
| O=C(O)[C@@H]1O[C@H]1C(=O)NC1CCCCC1 (relative stereo) [Compound No. 100, sodium N-cyclohexyl-2,3-epoxysuccinamate] | 0.231 γ |
| O=C(O)[C@@H]1O[C@H]1C(=O)N1CCCCC1 (relative stereo) [Compound No. 101, Potassium N-pentamethylene-2,3-epoxysuccinamate] | 4.05 γ |
| CCNC(=O)[C@H]1O[C@@H]1C(=O)O (relative stereo) [Compound No. 102, Potassium N-ethyl-2,3-epoxysuccinamate] | 1.34 γ |
| O=C(O)[C@@H]1O[C@H]1C(=O)N1CCCC1 (relative stereo) [Compound No. 103, Sodium N-tetramethylene-2,3-epoxysuccinamate] | 13.42 γ |
| O=C(O)[C@@H]1O[C@H]1C(=O)Nc1ccccc1 (relative stereo) [Compound No. 104, Sodium N-phenyl-2,3-epoxysuccinamate] | 0.315 γ |
| O=C(O)[C@@H]1O[C@H]1C(=O)Nc1ccccc1 (relative stereo) [Compound No. 105, N-phenyl-2,3-epoxysuccinamic acid] | 0.278 γ |
| O=C(O)[C@@H]1O[C@H]1C(=O)NC1CCCCC1 (relative stereo) [Compound No. 107, N-Cyclohexyl-2,3-epoxysuccinamic acid] | 0.214 γ |
| O=C(O)[C@@H]1O[C@H]1C(=O)NCC1CCCC1 (relative stereo) [Compound No. 108, N-Cyclopentanemethyl-2,3-epoxysuccinamic acid] | 0.234 γ |

— US4387238A, “Epoxysuccinamic acid compounds” (Taisho Pharmaceutical Co., Ltd., priority 1978, dated 1983)
